Data reported in patent publication US11053204B2, “Pyrimidinyloxy benzene derivatives as herbicides” (FMC Corporation, priority 2015, dated 2021).

Assays:
Test in all cases: Test C preemergence, plant response rating
Assay type in all cases: in vivo
[1] = test system: pigweed (Amaranthus retroflexus); conditions: for Plant response rating, Pigweed: Preemergence; for Pigweed plant response rating: preemergence
[2] = test system: nightshade (eastern black nightshade, Solanum ptycanthum)
[3] = test system: windgrass (Apera spica-venti)

## CCCOC(=O)c1c(Br)cccc1Oc1ncc(Cl)cn1 [Compound 13, propyl 2-bromo-6-[(5-chloro-2-pyrimidinyl)oxy]benzoate]
[1]; 16 g ai/ha, scale 0 to 100
  Plant response rating, Pigweed: 5
[1]; 31 g ai/ha, scale 0 to 100
  Plant response rating, Pigweed: 60
[1]; 4 g ai/ha, scale 0 to 100
  Pigweed plant response rating: 5
[1]; 8 g ai/ha, scale 0 to 100
  Pigweed plant response rating: 10

## O=C(OCCC(F)(F)F)c1c(Cl)cccc1Oc1ncc(Cl)cn1 [Compound 15, 3,3,3-trifluoropropyl 2-chloro-6-[(5-chloro-2-pyrimidinyl)oxy]benzoate]
[1]; 125 g ai/ha, scale of 0 to 100
  Plant response rating, Pigweed: 100
[1]; 16 g ai/ha, scale 0 to 100
  Plant response rating, Pigweed: 98
[1]; 31 g ai/ha, scale 0 to 100
  Plant response rating, Pigweed: 100
[1]; 62 g ai/ha, scale 0 to 100
  Plant response rating, Pigweed: 100

## CC(CC(F)(F)F)OC(=O)c1c(Br)cccc1Oc1ncc(Cl)cn1 (stereo not drawn) [Compound 16, 3,3,3-trifluoro-1-methylpropyl 2-bromo-6-[(5-chloro-2-pyrimidinyl)oxy]benzoate]
[1]; 125 g ai/ha, scale of 0 to 100
  Plant response rating, Pigweed: 95
[1]; 16 g ai/ha, scale 0 to 100
  Plant response rating, Pigweed: 0
[1]; 31 g ai/ha, scale 0 to 100
  Plant response rating, Pigweed: 0
[1]; 62 g ai/ha, scale 0 to 100
  Plant response rating, Pigweed: 50

## O=C(OCCCC(F)(F)F)c1c(Br)cccc1Oc1ncc(Cl)cn1 [Compound 20, 4,4,4-trifluorobutyl 2-bromo-6-[(5-chloro-2-pyrimidinyl)oxy]benzoate]
[1]; 125 g ai/ha, scale of 0 to 100
  Plant response rating, Pigweed: 100
[1]; 16 g ai/ha, scale 0 to 100
  Plant response rating, Pigweed: 55
[1]; 31 g ai/ha, scale 0 to 100
  Plant response rating, Pigweed: 55
[1]; 62 g ai/ha, scale 0 to 100
  Plant response rating, Pigweed: 100

## C=CCCOC(=O)c1c(Br)cccc1Oc1ncc(Cl)cn1 [Compound 21, 3-buten-1-yl 2-bromo-6-[(5-chloro-2-pyrimidinyl)oxy]benzoate]
[1]; 125 g ai/ha, scale of 0 to 100
  Plant response rating, Pigweed: 100
[1]; 16 g ai/ha, scale 0 to 100
  Plant response rating, Pigweed: 5
[1]; 31 g ai/ha, scale 0 to 100
  Plant response rating, Pigweed: 55
[1]; 62 g ai/ha, scale 0 to 100
  Plant response rating, Pigweed: 98

## O=C(OCCC(F)(F)F)c1c(Br)cccc1Oc1ncc(Cl)cn1 [Compound 26, 3,3,3-trifluoropropyl 2-bromo-6-[(5-chloro-2-pyrimidinyl)oxy]benzoate]
[1]; 125 g ai/ha, scale of 0 to 100
  Plant response rating, Pigweed: 100
[1]; 16 g ai/ha, scale 0 to 100
  Plant response rating, Pigweed: 100
[1]; 31 g ai/ha, scale 0 to 100
  Plant response rating, Pigweed: 100
[1]; 62 g ai/ha, scale 0 to 100
  Plant response rating, Pigweed: 100

## N#Cc1cccc(Oc2ncc(Cl)cn2)c1C(=O)OCCC(F)(F)F [Compound 30]
[1]; 125 g ai/ha, scale of 0 to 100
  Plant response rating, Pigweed: 100
[1]; 16 g ai/ha, scale 0 to 100
  Plant response rating, Pigweed: 90
[1]; 31 g ai/ha, scale 0 to 100
  Plant response rating, Pigweed: 95
[1]; 62 g ai/ha, scale 0 to 100
  Plant response rating, Pigweed: 100

## O=C(OCCC(F)(F)F)c1c(Br)cccc1Oc1ncc(Br)cn1 [Compound 33]
[1]; 125 g ai/ha, scale of 0 to 100
  Plant response rating, Pigweed: 100
[1]; 16 g ai/ha, scale 0 to 100
  Plant response rating, Pigweed: 80
[1]; 31 g ai/ha, scale 0 to 100
  Plant response rating, Pigweed: 100
[1]; 62 g ai/ha, scale 0 to 100
  Plant response rating, Pigweed: 100

## N#Cc1cccc(Oc2ncc(Cl)cn2)c1CCCC(F)(F)F [Compound 72]
[1]; 125 g ai/ha, scale of 0 to 100
  Plant response rating, Pigweed: 100
[1]; 16 g ai/ha, scale 0 to 100
  Plant response rating, Pigweed: 100
[1]; 31 g ai/ha, scale 0 to 100
  Plant response rating, Pigweed: 100
[1]; 62 g ai/ha, scale 0 to 100
  Plant response rating, Pigweed: 100

## N#Cc1cccc(Oc2ncc(Cl)cn2)c1CCCCC(F)(F)F [Compound 73, 3-[(5-chloro-2-pyrimidinyl)oxy]-2-(5,5,5-trifluoropentyl)benzonitrile]
[1]; 125 g ai/ha, scale of 0 to 100
  Plant response rating, Pigweed: 100
[1]; 16 g ai/ha, scale 0 to 100
  Plant response rating, Pigweed: 90
[1]; 31 g ai/ha, scale 0 to 100
  Plant response rating, Pigweed: 95
[1]; 62 g ai/ha, scale 0 to 100
  Plant response rating, Pigweed: 100

## CCCC(=O)c1c(Br)cccc1Oc1ncc(Cl)cn1 [Compound 75]
[2]; 16 g ai/ha, scale 0 to 100
  Plant response rating, Nightshade: 40
[2]; 31 g ai/ha, scale 0 to 100
  Plant response rating, Nightshade: 75
[2]; 62 g ai/ha, scale 0 to 100
  Plant response rating, Nightshade: 75
[2]; 125 g ai/ha, scale of 0 to 100
  Plant response rating, Nightshade: 80
[3]; 16 g ai/ha, scale 0 to 100
  Plant response rating, Windgrass: 5
[3]; 31 g ai/ha, scale 0 to 100
  Plant response rating, Windgrass: 45
[3]; 62 g ai/ha, scale 0 to 100
  Plant response rating, Windgrass: 100
[3]; 125 g ai/ha, scale of 0 to 100
  Plant response rating, Windgrass: 100

## O=C(CCCC(F)(F)F)c1c(Br)cccc1Oc1ncc(Cl)cn1 [Compound 77]
[1]; 125 g ai/ha, scale of 0 to 100
  Plant response rating, Pigweed: 100
[1]; 16 g ai/ha, scale 0 to 100
  Plant response rating, Pigweed: 85
[1]; 31 g ai/ha, scale 0 to 100
  Plant response rating, Pigweed: 100
[1]; 62 g ai/ha, scale 0 to 100
  Plant response rating, Pigweed: 100

## CCCCC(=O)c1c(Br)cccc1Oc1ncc(Cl)cn1 [Compound 79]
[2]; 16 g ai/ha, scale 0 to 100
  Plant response rating, Nightshade: 30
[2]; 31 g ai/ha, scale 0 to 100
  Plant response rating, Nightshade: 65
[2]; 62 g ai/ha, scale 0 to 100
  Plant response rating, Nightshade: 80
[2]; 125 g ai/ha, scale of 0 to 100
  Plant response rating, Nightshade: 95
[3]; 16 g ai/ha, scale 0 to 100
  Plant response rating, Windgrass: 60
[3]; 31 g ai/ha, scale 0 to 100
  Plant response rating, Windgrass: 80
[3]; 62 g ai/ha, scale 0 to 100
  Plant response rating, Windgrass: 100
[3]; 125 g ai/ha, scale of 0 to 100
  Plant response rating, Windgrass: 100

## N#Cc1cccc(Oc2ncc(Cl)cn2)c1COCCC(F)(F)F [Compound 80]
[2]; 31 g ai/ha, scale 0 to 100
  Plant response rating, Nightshade: 70
[2]; 62 g ai/ha, scale 0 to 100
  Plant response rating, Nightshade: 85
[2]; 125 g ai/ha, scale of 0 to 100
  Plant response rating, Nightshade: 90
[3]; 31 g ai/ha, scale 0 to 100
  Plant response rating, Windgrass: 60
[3]; 62 g ai/ha, scale 0 to 100
  Plant response rating, Windgrass: 100
[3]; 125 g ai/ha, scale of 0 to 100
  Plant response rating, Windgrass: 100

## O=C(CCCCC(F)(F)F)c1c(Br)cccc1Oc1ncc(Cl)cn1 [Compound 82]
[2]; 31 g ai/ha, scale 0 to 100
  Plant response rating, Nightshade: 20
[2]; 62 g ai/ha, scale 0 to 100
  Plant response rating, Nightshade: 40
[2]; 125 g ai/ha, scale of 0 to 100
  Plant response rating, Nightshade: 85
[3]; 31 g ai/ha, scale 0 to 100
  Plant response rating, Windgrass: 30
[3]; 62 g ai/ha, scale 0 to 100
  Plant response rating, Windgrass: 80
[3]; 125 g ai/ha, scale of 0 to 100
  Plant response rating, Windgrass: 90

## FC(F)(F)CCCc1c(Br)cccc1Oc1ncc(Cl)cn1 [Compound 89]
[2]; 31 g ai/ha, scale 0 to 100
  Plant response rating, Nightshade: 75
[2]; 62 g ai/ha, scale 0 to 100
  Plant response rating, Nightshade: 65
[2]; 125 g ai/ha, scale of 0 to 100
  Plant response rating, Nightshade: 85
[3]; 31 g ai/ha, scale 0 to 100
  Plant response rating, Windgrass: 50
[3]; 62 g ai/ha, scale 0 to 100
  Plant response rating, Windgrass: 65
[3]; 125 g ai/ha, scale of 0 to 100
  Plant response rating, Windgrass: 100

## O=C(CCC(F)(F)F)c1c(Cl)cccc1Oc1ncc(Cl)cn1 [Compound 107, 1-[2-chloro-6-[(5-chloro-2-pyrimidinyl)oxy]phenyl]-4,4,4-trifluoro-1-butanone]
[2]; 31 g ai/ha, scale 0 to 100
  Plant response rating, Nightshade: 60
[2]; 62 g ai/ha, scale 0 to 100
  Plant response rating, Nightshade: 80
[2]; 125 g ai/ha, scale of 0 to 100
  Plant response rating, Nightshade: 90
[3]; 31 g ai/ha, scale 0 to 100
  Plant response rating, Windgrass: 100
[3]; 62 g ai/ha, scale 0 to 100
  Plant response rating, Windgrass: 100
[3]; 125 g ai/ha, scale of 0 to 100
  Plant response rating, Windgrass: 100

## O=C(CCCC(F)(F)F)c1c(Oc2ncc(Cl)cn2)cccc1C(F)(F)F [Compound 125]
[3]; 31 g ai/ha, scale 0 to 100
  Plant response rating, Windgrass: 85
[3]; 62 g ai/ha, scale 0 to 100
  Plant response rating, Windgrass: 90
[3]; 125 g ai/ha, scale of 0 to 100
  Plant response rating, Windgrass: 100

## CCCCC(=O)c1c(Oc2ncc(Cl)cn2)cccc1C(F)(F)F [Compound 130]
[3]; 31 g ai/ha, scale 0 to 100
  Plant response rating, Windgrass: 70
[3]; 62 g ai/ha, scale 0 to 100
  Plant response rating, Windgrass: 100
[3]; 125 g ai/ha, scale of 0 to 100
  Plant response rating, Windgrass: 100

## CCCC(=O)c1c(Oc2ncc(Cl)cn2)cccc1C(F)(F)F [Compound 136]
[3]; 31 g ai/ha, scale 0 to 100
  Plant response rating, Windgrass: 30
[3]; 62 g ai/ha, scale 0 to 100
  Plant response rating, Windgrass: 85
[3]; 125 g ai/ha, scale of 0 to 100
  Plant response rating, Windgrass: 100

## FC(F)(F)CCCCc1c(Br)cccc1Oc1ncc(Cl)cn1 [Compound 138]
[2]; 31 g ai/ha, scale 0 to 100
  Plant response rating, Nightshade: 50
[2]; 62 g ai/ha, scale 0 to 100
  Plant response rating, Nightshade: 80
[2]; 125 g ai/ha, scale of 0 to 100
  Plant response rating, Nightshade: 80
[3]; 31 g ai/ha, scale 0 to 100
  Plant response rating, Windgrass: 100
[3]; 62 g ai/ha, scale 0 to 100
  Plant response rating, Windgrass: 100
[3]; 125 g ai/ha, scale of 0 to 100
  Plant response rating, Windgrass: 100

## O=C(CCCC(F)(F)F)c1c(Cl)cccc1Oc1ncc(Cl)cn1 [Compound 143]
[3]; 31 g ai/ha, scale 0 to 100
  Plant response rating, Windgrass: 85
[3]; 62 g ai/ha, scale 0 to 100
  Plant response rating, Windgrass: 100
[3]; 125 g ai/ha, scale of 0 to 100
  Plant response rating, Windgrass: 100

## N#CC(CCCC(F)(F)F)c1ccccc1Oc1ncc(Cl)cn1 (stereo not drawn) [Compound 144]
[2]; 31 g ai/ha, scale 0 to 100
  Plant response rating, Nightshade: 65
[2]; 62 g ai/ha, scale 0 to 100
  Plant response rating, Nightshade: 90
[2]; 125 g ai/ha, scale of 0 to 100
  Plant response rating, Nightshade: 100
[3]; 31 g ai/ha, scale 0 to 100
  Plant response rating, Windgrass: 30
[3]; 62 g ai/ha, scale 0 to 100
  Plant response rating, Windgrass: 80
[3]; 125 g ai/ha, scale of 0 to 100
  Plant response rating, Windgrass: 90
